One test has as its target T1, 14-3-3 isoform gamma (Homo sapiens, UniProt P61981).
T1 construct: His6; made in house; host or cells: Escherichia coli BL21 Rosetta (DE3)
T1 sequence (P61981 1-247): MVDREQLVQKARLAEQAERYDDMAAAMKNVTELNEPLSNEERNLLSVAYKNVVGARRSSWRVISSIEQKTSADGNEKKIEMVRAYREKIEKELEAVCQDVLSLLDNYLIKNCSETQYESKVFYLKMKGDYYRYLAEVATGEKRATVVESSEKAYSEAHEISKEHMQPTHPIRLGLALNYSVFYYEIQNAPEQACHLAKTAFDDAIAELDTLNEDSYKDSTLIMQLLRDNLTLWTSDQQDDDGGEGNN
Put plainly: Label-free microscale thermophoresis (MST) binding, 14-3-3 gamma. The note with it: 0.6 µM 14-3-3 protein, 25 mM MES pH 6.5, 5 mM MgCl2, 5 mM CaCl2, 25°C, Kd from duplicate measurements, aggr. = no successful experiment. The method, then: (§1) The binding of phosphorylated sirtuin peptides (Fig. 1 ▸) was analyzed using the change in the intrinsic fluorescence signal of the 14-3-3 proteins measured with label-free microscale thermophoresis using a Nanotemper Monolith NT.LabelFree or NT.115. A typical binding experiment using 0.6 µM 14-3-3 protein was performed in a modified MST buffer consisting of 25 mM MES pH 6.5, 5 mM MgCl2, 5 mM CaCl2. The measurements were performed at 25°C using a LED power of 10–40%. All measurements were performed at least in duplicate, and the results shown are representative measurements individually fitted using GraFit 7 (Erathicus Software, Horley, United Kingdom).
Figure 1 Classification and analysis of sirtuin PSSM results for potential 14-3-3 phosphoserine binding sites. Peptides with a gray background were not analyzed experimentally. Score is the overall PSSM score for the phosphorylation site; rank is the order within the 17 proposed sirtuin binding sites. Conserved residues in the 14-3-3 motifs are marked in green. Residues with restricted (proline) or very flexible (glycine) protein backbone or with a very large side chain (tryptophan) are marked in red. Amino acids with the same or similar hydrophobicity/size are shown in magenta. Kd values from duplicate measurements are colored green for Kd < 100 µM. Fields marked in red indicate no binding or no successful experiment. […]
For orientation: In MST a laser heats a spot of the sample, and binding alters the fluorescence response.

A further test deals with T2, 14-3-3 isoform theta (Homo sapiens, UniProt P27348).
T2 construct: His6; made in house; host or cells: Escherichia coli BL21 Rosetta (DE3)
T2 sequence (P27348 1-245): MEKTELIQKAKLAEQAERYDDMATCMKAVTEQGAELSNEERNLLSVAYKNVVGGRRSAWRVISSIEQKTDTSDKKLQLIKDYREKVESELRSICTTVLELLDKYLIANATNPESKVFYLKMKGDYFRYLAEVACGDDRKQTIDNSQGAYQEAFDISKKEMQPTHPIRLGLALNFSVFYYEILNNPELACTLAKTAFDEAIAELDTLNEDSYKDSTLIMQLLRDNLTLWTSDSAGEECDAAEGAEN
Put plainly: Label-free microscale thermophoresis (MST) binding, 14-3-3 theta. The following applies: label-free MST, 0.6 µM 14-3-3 protein, 25 mM MES pH 6.5, 5 mM MgCl2, 5 mM CaCl2, 25°C; Kd from duplicate measurements; read-out: Affinity estimates by MicroScale Thermophoresis, 14-3-3 isoform theta (Kd). The method, then:
as §1
(§2) Figure 1 Classification and analysis of sirtuin PSSM results for potential 14-3-3 phosphoserine binding sites. Peptides with a gray background were not analyzed experimentally. Score is the overall PSSM score for the phosphorylation site; rank is the order within the 17 proposed sirtuin binding sites. Conserved residues in the 14-3-3 motifs are marked in green. Residues with restricted (proline) or very flexible (glycine) protein backbone or with a very large side chain (tryptophan) are marked in red. Amino acids with the same or similar hydrophobicity/size are shown in magenta. Kd values from duplicate measurements are colored green for Kd < 100 µM. Fields marked in red indicate no binding or no successful experiment. TEXT PRINTED IN THE PICTURE: Sirt1 S26: Affinity estimates by MicroScale Thermophoresis [μM], 14-3-3 isoform sigma: none | Sirt1 S670: Affinity estimates by MicroScale Thermophoresis [μM], 14-3-3 isoform gamma: aggr.; Affinity estimates by MicroScale Thermophoresis [μM], 14-3-3 isoform epsilon: > 183; Affinity estimates by MicroScale Thermophoresis [μM], 14-3-3 isoform theta: 93; Affinity estimates by MicroScale Thermophoresis [μM], 14-3-3 isoform sigma: 5 | Sirt3 S103: Affinity estimates by MicroScale Thermophoresis [μM], 14-3-3 isoform gamma: aggr.; Affinity estimates by MicroScale Thermophoresis [μM], 14-3-3 isoform epsilon: > 267; Affinity estimates by MicroScale Thermophoresis [μM], 14-3-3 isoform theta: 52; Affinity estimates by MicroScale Thermophoresis [μM], 14-3-3 isoform sigma: 10 | Sirt3 S103wt: Affinity estimates by MicroScale Thermophoresis [μM], 14-3-3 isoform gamma: aggr.; Affinity estimates by MicroScale Thermophoresis [μM], 14-3-3 isoform theta: none; Affinity estimates by MicroScale Thermophoresis [μM], 14-3-3 isoform sigma: none | Sirt3 S105: Affinity estimates by MicroScale Thermophoresis [μM], 14-3-3 isoform gamma: aggr.; Affinity estimates by MicroScale Thermophoresis [μM], 14-3-3 isoform epsilon: > 215; Affinity estimates by MicroScale Thermophoresis [μM], 14-3-3 isoform theta: 60; Affinity estimates by MicroScale Thermophoresis [μM], 14-3-3 isoform sigma: none | Sirt5 S168: Affinity estimates by MicroScale Thermophoresis [μM], 14-3-3 isoform epsilon: aggr.; Affinity estimates by MicroScale Thermophoresis [μM], 14-3-3 isoform theta: aggr.; Affinity estimates by MicroScale Thermophoresis [μM], 14-3-3 isoform sigma: > 329 | Sirt6 T337: Affinity estimates by MicroScale Thermophoresis [μM], 14-3-3 isoform epsilon: > 420; Affinity estimates by MicroScale Thermophoresis [μM], 14-3-3 isoform sigma: 12 | Sirt6 S338: Affinity estimates by MicroScale Thermophoresis [μM], 14-3-3 isoform epsilon: 19; Affinity estimates by MicroScale Thermophoresis [μM], 14-3-3 isoform sigma: 24 | Sirt7 S136: Affinity estimates by MicroScale Thermophoresis [μM], 14-3-3 isoform epsilon: none; Affinity estimates by MicroScale Thermophoresis [μM], 14-3-3 isoform theta: 30; Affinity estimates by MicroScale Thermophoresis [μM], 14-3-3 isoform sigma: 49

The target of a further test is T3, 14-3-3σ-ΔC (Homo sapiens, UniProt P31947).
T3 construct: His6; made in house; host or cells: Escherichia coli BL21 Rosetta (DE3)
T3 sequence (P31947 1-231 limits assumed): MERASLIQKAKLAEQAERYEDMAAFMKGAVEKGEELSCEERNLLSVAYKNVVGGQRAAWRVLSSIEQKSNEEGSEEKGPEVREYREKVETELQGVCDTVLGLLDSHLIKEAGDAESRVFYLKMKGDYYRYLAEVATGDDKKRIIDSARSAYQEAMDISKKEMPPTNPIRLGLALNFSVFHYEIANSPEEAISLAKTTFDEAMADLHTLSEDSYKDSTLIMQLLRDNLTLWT
Put plainly: Label-free microscale thermophoresis (MST) binding, 14-3-3σ. The method, then: as §1, §2
For nine of the sites, including sites from all sirtuin isoforms except Sirt4, endecameric phosphopeptides were chemically synthesized for in vitro analysis. […]

Where two headings read alike, the source gives them in different places. Where a SMILES comes first, the peptide text is derived from it. [ ]: non-standard residue; d: D form. pS = N[C@@H](COP(=O)(O)O)C(=O)O

In the case of `CC(C)C[C@H](NC(=O)[C@@H](N)C(C)C)C(=O)N[C@@H](CO)C(=O)N[C@@H](CO)C(=O)N[C@@H](CO)C(=O)N[C@@H](COP(=O)(O)O)C(=O)N[C@@H](CS)C(=O)NCC(=O)N[C@@H](CO)C(=O)N[C@@H](CC(N)=O)C(=O)N[C@@H](CO)C(=O)O` [Sirt1^pS670] (H-VLSSS[pS]CGSNS-OH), at 14-3-3 isoform gamma, the “Affinity estimates by MicroScale Thermophoresis, 14-3-3 isoform gamma (Kd)” value was “aggr”. The Kd is 93 µM at 14-3-3 isoform theta; 5 µM at 14-3-3σ-ΔC (Fig. 1, label-free MST, 0.6 µM 14-3-3 protein, 25 mM MES pH 6.5, 5 mM MgCl2, 5 mM CaCl2, 25°C, Kd from duplicate measurements, read-out: Affinity estimates by MicroScale Thermophoresis, 14-3-3 isoform sigma (Kd)); 1.7 ± 1.3 µM at 14-3-3σ-ΔC (Fig. 3a, average of two independent MST experiments, 25°C, MES pH 6.5, read-out: average Kd, MST titration of 14-3-3σ-ΔC).

Values taken from article PMC12809495, “Potential 14-3-3 binding sites in sirtuins reveal extended phosphosite-recognition modes” (Acta Crystallographica Section F: Structural Biology …, 2026).
